Species: Oryctolagus cuniculus
Experiment: Compound was tested for its ability to release [Ca2+] from permeabilised rabbit platelets.
Assay type: functional, organism-based

Row | EC50 (Oryctolagus cuniculus) | EC50 | SMILES
1 | 0.44 µM | – | O=P(O)(O)OC1[C@@H](O)C(CO)C(OP(=O)(O)O)[C@H](OP(=O)(O)O)[C@@H]1O (stereo partly drawn)
2 | – | 0.4 µM | O=P(O)(O)O[C@@H]1[C@@H](O)[C@@H](O)[C@@H](OP(=O)(O)O)C(O)[C@H]1OP(=O)(O)O (single isomer, unassigned) [INS(1,4,5)P3]
3 | – | 1.67 µM | O=P(O)(O)O[C@H]1C(O)[C@@H](OP(=O)(O)O)[C@H](OP(=O)(O)O)[C@@H](O)C1O (single isomer, unassigned) [INS(1,4,5)P3]

— ChEMBL document CHEMBL1129165, “6-Deoxy-6-hydroxymethyl scyllo-inositol 1,2,4-trisphosphate: A potent agonist at the inositol 1,4,5-trisphosphate receptor” (Bioorg Med Chem Lett, 1996)
